Laboratory results from patent publication US12319655B2, “RAF kinase inhibitors and methods of use thereof” (Deciphera Pharmaceuticals, LLC, priority 2021, dated 2025).
Read-outs that look alike come from different tables or passages of the source.

Columns and labels:
A375 cells = experiment: A375 Cell Proliferation Assay (1); type: cell-based; settings: Homo sapiens, A-375
Method in brief: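 Resazurin fluorescence (excitation 540 nm, emission 600 nm, after a further 5-6 h) gave IC50s from triplicate compound dilution series.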

H2405 cells = experiment: H2405 Cell Proliferation Assay (1); type: cell-based; settings: Homo sapiens, NCI-H2405
Method in brief: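 Viability was read by resazurin reduction (ex 540 nm, em 600 nm; 5-6 h with 40 μL of 440 μM stock) after 67-72 h compound exposure at 37 °C.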

[1] = target: A-Raf kinase (SEQ. ID No: 1) (Homo sapiens (Human), UniProt P10398, Y301D/Y302D); experiment: Biochemical Assay for A-Raf (1); settings: Table J
A-Raf kinase (SEQ. ID No: 1), sequence (P10398 other isoform, or with tags, fused parts or gaps Y301D (already in the parent)/Y302D (already in the parent)): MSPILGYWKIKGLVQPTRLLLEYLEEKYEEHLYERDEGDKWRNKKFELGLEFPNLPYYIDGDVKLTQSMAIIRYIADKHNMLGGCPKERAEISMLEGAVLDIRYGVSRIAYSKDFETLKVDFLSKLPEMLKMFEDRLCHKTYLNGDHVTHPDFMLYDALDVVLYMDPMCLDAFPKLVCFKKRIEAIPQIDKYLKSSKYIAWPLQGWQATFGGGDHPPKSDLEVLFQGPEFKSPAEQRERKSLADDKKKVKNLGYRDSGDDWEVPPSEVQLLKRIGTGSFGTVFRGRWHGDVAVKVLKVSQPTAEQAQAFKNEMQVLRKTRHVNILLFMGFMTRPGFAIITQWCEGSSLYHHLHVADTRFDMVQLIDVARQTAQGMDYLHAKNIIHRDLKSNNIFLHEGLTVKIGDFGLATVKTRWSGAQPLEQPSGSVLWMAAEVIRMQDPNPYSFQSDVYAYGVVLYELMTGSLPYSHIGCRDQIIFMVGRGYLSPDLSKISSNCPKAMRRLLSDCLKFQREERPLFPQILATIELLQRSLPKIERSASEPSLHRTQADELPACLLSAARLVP
Method in brief: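 A-Raf Y301D/Y302D at 5.55 nM phosphorylates 30.1 nM MEK with 1 mM ATP in pH 7.5 Tris buffer, 1% DMSO. Activity was read continuously as NADH oxidation at 340 nm in a pyruvate kinase/lactate dehydrogenase coupled system for 6 h at 30 °C. Rates from 4–5 h were converted to percent inhibition, and IC50 came from a four-parameter fit.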

[2] = target: B-Raf (V600E) (SEQ. ID NO: 4) kinase (Homo sapiens (Human), UniProt P15056, V600E); experiment: Biochemical Assay for B-Raf (V600E) (1); settings: Table J, BRAF V600E
B-Raf (V600E) (SEQ. ID NO: 4) kinase, sequence (P15056 416-766 V600E): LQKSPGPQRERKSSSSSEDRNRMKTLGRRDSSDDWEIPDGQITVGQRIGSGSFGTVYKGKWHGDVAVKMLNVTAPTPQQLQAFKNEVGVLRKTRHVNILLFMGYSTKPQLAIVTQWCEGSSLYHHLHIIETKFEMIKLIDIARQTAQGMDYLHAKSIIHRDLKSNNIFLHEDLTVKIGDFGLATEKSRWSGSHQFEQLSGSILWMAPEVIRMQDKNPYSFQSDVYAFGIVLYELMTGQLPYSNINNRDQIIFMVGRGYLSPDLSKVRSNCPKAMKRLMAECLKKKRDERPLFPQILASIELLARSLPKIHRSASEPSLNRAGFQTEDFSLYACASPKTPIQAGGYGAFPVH
Method in brief: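 Coupled pyruvate kinase/lactate dehydrogenase assay: 0.03 nM B-Raf V600E, 30.1 nM MEK, 1 mM ATP, pH 7.5 Tris/MgCl2 buffer, 1% DMSO. NADH oxidation followed at 340 nm for 6 h at 30 °C; rate from 3–4 h converted to percent inhibition, IC50 by four-parameter fit.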

[3] = assay version (1), read-out: ARAF (1) IC50
[4] = assay version (1), read-out: BRAF VE (1) IC50
[5] = biochemical assay (1), read-out: ARAF (1)
[6] = biochemical assay (1), read-out: BRAF VE (1)

Row | SMILES | IC50 (A375 cells) [nM] | IC50 (H2405 cells) [nM] | IC50 [1, 3] [nM] | IC50 [2, 4] [nM] | IC50 [1, 5] [nM] | IC50 [2, 6] [nM]
1 | CCOc1ncc(-c2cc(NC(=O)c3ccnc(C(F)(F)F)c3)ccc2C)cc1-c1ccnc(NC(=O)C2CC2)c1 [Example 71] | 100 to 500 | 100 to 500 | 1000 to 10000 | ≤ 100 |  | 
2 | CNC(=O)c1cc(-c2cc(-c3cc(C(=O)Nc4ccnc(C(C)(C)C#N)c4)ccc3C)ccn2)ccn1 [Example 74] | 100 to 500 | 100 to 500 | 1000 to 10000 | ≤ 100 |  | 
3 | Cc1ccc(NC(=O)c2ccnc(C(C)(C)C#N)c2)cc1-c1cccc(-c2cc(NC(=O)C3CC3)ncn2)c1 [Example 77] | ≤ 100 | ≤ 100 | 1000 to 10000 | ≤ 100 |  | 
4 | Cc1ccc(NC(=O)c2ccnc(C(F)(F)F)c2)cc1-c1cccc(-c2cc(NC(=O)C3CC3)ncn2)c1 [Example 80] | ≤ 100 | ≤ 100 | 1000 to 10000 | ≤ 100 |  | 
5 | CNC(=O)c1cc(-c2cncc(-c3cc(C(=O)Nc4cnn(C(C)C)c4)ccc3C)n2)ccn1 [Example 81] | 1000 to 10000 | 1000 to 10000 | 1000 to 10000 | ≤ 100 |  | 
6 | Cc1ccc(NC(=O)c2ccnc(C(C)(C)C#N)c2)cc1-c1ccnc(-c2ccnc(N)c2)n1 [Example 82] | 500 to 1000 | 500 to 1000 | 1000 to 10000 | ≤ 100 |  | 
7 | CNC(=O)c1cc(-c2cc(-c3cc(NC(=O)c4ccnc(C(F)(F)F)c4)ccc3C)ncn2)ccn1 [Example 85] | 1000 to 10000 | 100 to 500 | 1000 to 10000 | ≤ 100 |  | 
8 | CNC(=O)c1cc(-c2cncc(-c3cc(NC(=O)c4ccnc(C(C)(C)C#N)c4)ccc3C)n2)ccn1 [Example 86] | ≤ 100 | ≤ 100 | 1000 to 10000 | ≤ 100 |  | 
9 | Cc1ccc(NC(=O)c2cn(C(C)C)nc2C)cc1-c1cc(-c2ccnc(NC(=O)C3CC3)c2)cnn1 [Example 373] | 1000 to 10000 | 1000 to 10000 |  |  | 1000 to 10000 | 100 to 500
10 | CNC(=O)c1cc(-c2cnnc(-c3cc(NC(=O)CCC4(F)CC4)cnc3C)c2)ccn1 [Example 374] | 1000 to 10000 | 1000 to 10000 |  |  | 1000 to 10000 | 1000 to 10000
11 | COC(=O)Nc1cc(-c2cnnc(-c3cc(NC(=O)c4ccnc(C(C)(C)F)c4)ccc3C)c2)ccn1 [Example 375] | 100 to 500 | 100 to 500 |  |  | 1000 to 10000 | ≤ 100
12 | CNC(=O)c1cc(-c2ccnc(-c3cc(NC(=O)c4ccnc(C(C)(C)C#N)c4)ccc3C)c2)ccn1 [Example 376] | ≤ 100 | 100 to 500 |  |  | 1000 to 10000 | ≤ 100
13 | Cc1ccc(NC(=O)c2cc(C3CC3)n(C)n2)cc1-c1cc(-c2ccnc(NC(=O)C3CC3)c2)cnn1 [Example 377] | 100 to 500 | 100 to 500 |  |  | 1000 to 10000 | ≤ 100
14 | CNC(=O)c1cc(-c2ccnc(-c3cc(NC(=O)c4ccnc(C(C)(C)F)c4)ccc3C)c2)ccn1 [Example 378] | ≤ 100 | 100 to 500 |  |  | 1000 to 10000 | ≤ 100
15 | CNC(=O)c1cc(-c2cncc(-c3cc(NC(=O)c4ccnc(C(C)(C)F)c4)ccc3C)c2)ncn1 [Example 379] | ≤ 100 | 100 to 500 |  |  | 1000 to 10000 | ≤ 100
16 | Cc1ccc(NC(=O)c2ccnc(C(C)(C)F)c2)cc1-c1cncc(-c2ccnc(C(N)=O)c2)c1 [Example 380] | 100 to 500 | 100 to 500 |  |  | 1000 to 10000 | ≤ 100
17 | Cc1ccc(NC(=O)c2cnn(CC(F)(F)F)c2)cc1-c1cncc(-c2ccnc(C(N)=O)c2)c1 [Example 381] | 1000 to 10000 | 1000 to 10000 |  |  | 1000 to 10000 | 100 to 500
18 | CNC(=O)c1cc(-c2cncc(-c3cc(NC(=O)c4cnn(CC(F)(F)F)c4)ccc3C)c2)ncn1 [Example 382] | 1000 to 10000 | 1000 to 10000 |  |  | 1000 to 10000 | 100 to 500
19 | CNC(=O)c1cc(-c2cncc(-c3cc(NC(=O)Cn4cc(C(C)C)nn4)ccc3C)c2)ncn1 [Example 383] | 1000 to 10000 | 1000 to 10000 |  |  | 1000 to 10000 | 1000 to 10000

Row | SMILES | IC50 (A375 cells) [nM] | IC50 (H2405 cells) [nM] | IC50 [1, 3] [nM] | IC50 [2, 4] [nM] | IC50 [1, 5] [nM] | IC50 [2, 6] [nM]
20 | COC(=O)Nc1cc(-c2cncc(-c3cc(NC(=O)c4ccnc(C(C)(C)F)c4)c(F)cc3C)c2)ccn1 [Example 384] | ≤ 100 | 100 to 500 |  |  | 1000 to 10000 | ≤ 100
21 | Cc1ncc(NC(=O)c2ccnc(C(C)(C)C#N)c2)cc1-c1cccc(-c2ncnn3cccc23)c1 [Example 385] | 1000 to 10000 | 1000 to 10000 |  |  | 1000 to 10000 | ≤ 100
22 | COC(=O)Nc1cc(-c2cc(-c3cc(NC(=O)c4ccnc(C(C)(C)F)c4)c(F)cc3C)cc(C)n2)ccn1 [Example 386] | 100 to 500 | 500 to 1000 |  |  | 1000 to 10000 | ≤ 100
23 | Cc1ccc(NC(=O)[C@H]2CCO[C@@H](C(C)C)C2)cc1-c1cc(-c2ccnc(NC(=O)C3CC3)c2)cnn1 [Example 388] | 1000 to 10000 | 1000 to 10000 |  |  | 1000 to 10000 | 100 to 500
24 | Cc1ccc(NC(=O)[C@H]2CCO[C@H](C(C)C)C2)cc1-c1cc(-c2ccnc(NC(=O)C3CC3)c2)cnn1 [Example 389] | 1000 to 10000 | 1000 to 10000 |  |  | 1000 to 10000 | 100 to 500
25 | COC(=O)Nc1cc(-c2nccc(-c3cc(NC(=O)c4ccnc(C(C)(C)F)c4)ccc3C)n2)ccn1 [Example 391] | ≤ 100 | 500 to 1000 |  |  | 1000 to 10000 | ≤ 100
26 | CNC(=O)c1cc(-c2ccnc(-c3cc(NC(=O)CCC4(F)CC4)ccc3C)c2)ccn1 [Example 392] | 1000 to 10000 | 1000 to 10000 |  |  | 1000 to 10000 | 1000 to 10000
27 | CNC(=O)c1cc(-c2cncc(-c3cc(NC(=O)c4ccnc(C5(C#N)CC5)c4)ccc3C)c2)ncn1 [Example 393] | 100 to 500 | 100 to 500 |  |  | 1000 to 10000 | ≤ 100
28 | Cc1ccc(NC(=O)c2ccnc(C(C)(C)F)c2)cc1-c1cncc(-c2cc(NC(=O)C3CC3)ncn2)c1 [Example 394] | ≤ 100 | ≤ 100 |  |  | 100 to 500 | ≤ 100
29 | Cc1ccc(NC(=O)c2ccnc(C3(C#N)CC3)c2)cc1-c1cncc(-c2cc(NC(=O)C3CC3)ncn2)c1 [Example 395] | ≤ 100 | ≤ 100 |  |  | 500 to 1000 | ≤ 100
30 | Cc1ccc(NC(=O)c2ccnc(C3CC3)c2)cc1-c1cncc(-c2cc(NC(=O)C3CC3)ncn2)c1 [Example 396] | ≤ 100 | ≤ 100 |  |  | 100 to 500 | ≤ 100
31 | Cc1ccc(NC(=O)c2ccnc(C(F)(F)F)c2)cc1-c1cncc(-c2cc(NC(=O)C3CC3)ncn2)c1 [Example 397] | ≤ 100 | ≤ 100 |  |  | 1000 to 10000 | ≤ 100
32 | Cc1cc(F)c(NC(=O)c2ccnc(C3CC3)c2)cc1-c1cncc(-c2cc(NC(=O)C3CC3)ncn2)c1 [Example 398] | ≤ 100 | ≤ 100 |  |  | 1000 to 10000 | ≤ 100
33 | Cc1cc(F)c(NC(=O)c2ccnc(C(C)(C)F)c2)cc1-c1cncc(-c2ccnc(NC(=O)C3CC3)c2)c1 [Example 399] | ≤ 100 | ≤ 100 |  |  | 500 to 1000 | ≤ 100
34 | Cc1ccc(NC(=O)c2ccnc(C(C)(C)F)c2)cc1-c1cc(-c2ccnc3[nH]ncc23)cnn1 [Example 400] | 1000 to 10000 | 1000 to 10000 |  |  | 1000 to 10000 | 100 to 500
35 | COC(=O)Nc1cc(-c2cc(-c3cc(NC(=O)c4ccnc(C(C)(C)F)c4)ccc3C)cc(OCCO)n2)ccn1 [Example 401] | ≤ 100 | 100 to 500 |  |  | 1000 to 10000 | ≤ 100
36 | COC(=O)Nc1cc(-c2cccc(-c3cc(NC(=O)c4ccnc(C(C)(C)F)c4)cnc3C)c2)ccn1 [Example 402] | 100 to 500 | 500 to 1000 |  |  | 1000 to 10000 | ≤ 100
37 | COC(=O)Nc1cc(-c2ccnc(-c3cc(NC(=O)c4ccnc(C(C)(C)F)c4)ccc3C)n2)ccn1 [Example 403] | 100 to 500 | 100 to 500 |  |  | 1000 to 10000 | ≤ 100
